Experimental data reported in US20230042936A1, “PYRIDO[2,3-d]PYRIMIDIN-7(8H)-ONES AS CDK INHIBITORS” (PROSENESTAR LLC, priority 2020, published 2023).
“Also recorded” adds a separate entry of the source.

Legend:
[1] = system: MDA-MB-231 cells; assay: Senescence assay (β-Galactosidase staining); assay type: cell-based, human; settings: at GI50; 3 days or 14 days exposure; FIGS. 2 and 3
Method: MDA-MB-231 cells were seeded in 6-well plates (65,000 cells/well) and treated with the selected compounds at their respective GI50. At 3, 7 and 14 days after treatment cells were stained with Senescence β-Galactosidase Staining Kit (Cell Signaling) at 37° C. overnight. Blue coloured senescent cells were counted with an optical microscope. Medium and compounds were refreshed every 3 days.
Cell cycle arrest can be irreversible in case of senescence induction.

[2] = Toxicologic evaluation in vivo; settings: 50 or 100 mg/kg intraperitoneally twice a week for two weeks; for lung toxicity (hemorrhage in the lungs), mice affected: FIG. 11; for mouse weight: vs DMSO; for mouse weight / blood counts (white blood cells, lymphocytes): FIG. 10
[3] = system: MDA-MB-468 breast carcinoma cell line (pRB mutant); assay: Proliferation assay: determination of GI50; assay type: cell-based; settings: Homo sapiens, Table 4, n = 2, read-out: Growth inhibition GI50, Breast cancer pRB Mutant MDA-MB-468
Method: (§1) The following human tumor cell lines, all Retinoblastoma (Rb)-proficient, were used in this study: MDA-MB231 (breast cancer), MDA-MB453 (breast cancer), U87MG (glioblastoma) and H460 (lung cancer). MDA-MB468 (breast cancer) and SW1783 (glioblastoma) Rb-deficient cells were also included in the study, as well as the MCF10A non-transformed mammary epithelial cell line. Tumor cell lines were maintained in DMEM or RPMI-1640 medium, depending on the cell line, supplemented with 10% FBS. MCF10A cells were grown in complete mammary epithelial growth medium (MEGM, Lonza). Cell lines were authenticated by short tandem repeat (STR) loci profiling with the GenePrint® 10 System (Promega).
(§2) All human cancer cell lines (Table 2) were obtained from the American Type Culture Collection, and were maintained in DMEM (Hyclone) or RPMI-1640 medium (Sigma) supplemented with 10% fetal bovine serum (Sigma). Non-transformed MCF10 cell line was maintained in MEGM Mammary Epithelial Cell Growth Medium (Lonza). Immortalized mouse embryonic fibroblasts (MEFs) were maintained in DMEM with 10% fetal bovine serum.
(§3) 48 h later cells were fixed with PFA 4% for 15 minutes, stained with 10 μg/ml Hoechst 33342 (Molecular Probes, Thermo Fisher) for 30 minutes and washed twice with PBS. Cells were imaged in a high content screening system (Opera Phoenix™, Perkin Elmer) using a 20× dry objective (30 fields/well). Cell counts were determined by the Opera software (Perkin Elmer) and data were further processed with SPSS software. GI50 was calculated by estimating the absolute IC50 using dose-response inhibition tool in Prism6 (Graphpad Software Inc.).

[4] = system: SW1783 glioblastoma cell line (pRB mutant); assay: Proliferation assay: determination of GI50; assay type: cell-based; settings: Homo sapiens, Table 4, n = 4, read-out: Growth inhibition GI50, Glioblastoma pRB Mutant SW1783
Method: as §1, §2, §3

[5] = Thermodynamic solubility (pH 7.4); assay type: physicochemical; settings: pH 7.4, aqueous buffer, thermodynamic from solid
[6] = Kinetic solubility (pH 7.4); assay type: physicochemical; settings: pH 7.4, aqueous buffer, kinetic from dmso stock
[7] = Metabolic stability in microsomes; assay type: in vitro ADME; settings: human, 60-90 min test; for microsomal CLint: read-out: Metabolic stability, Human microsomes: Clearance; for half-life: read-out: Metabolic stability, Human microsomes: t1/2
[8] = Metabolic stability in hepatocytes; assay type: in vitro ADME; settings: mouse, 60-90 min test; for hepatocyte CLint: read-out: Metabolic stability, Mouse heptocytes: Clearance; for half-life: read-out: Metabolic stability, Mouse heptocytes: t1/2
[9] = Permeability Caco-2 cells; assay type: in vitro ADME; settings: human, Caco-2
[10] = system: Caco-2 cells; assay: Permeability Caco-2 cells; assay type: in vitro ADME
[11] = system: Cdk2/4/6_KO MEFs; assay: Cell growth in Cdk-deficient MEFs; assay type: cell-based, mouse; settings: relative cell count day 6 versus day 3; FIG. 4
Method: (§4) Cdk-deficient MEFs were plated in 10-cm dish in triplicate (100,000/well) and treated with the selected compounds at the indicated concentration, based on GI50 previously determined in the MDA-MB-231 cell line. Cells were counted in an optical microscope 3 and 6 days after treatment to estimate the relative cell growth in each condition.
(§5) To further investigate the relative functional dependence of the subject compounds on CDK2 versus CDK4 or CDK6, the specific effects of PS004, PS006 and PS009 were tested on CDK-deficient mouse embryonic fibroblasts (MEFs) obtained from Cdk2 knock out, Cdk4; Cdk6-double knock out and Cdk2; Cdk4; Cdk6-triple knock out mouse models.

[12] = system: Cdk4/6_KO MEFs; assay: Cell growth in Cdk-deficient MEFs; assay type: cell-based, mouse; settings: relative cell count day 6 versus day 3; FIG. 4
Method: as §4, §5

[13] = system: pRB-wild-type and pRB-deficient glioblastoma cells (U87MG, SW1783); assay: GI50 compared in pRB-wild-type and pRB-deficient cells; assay type: cell-based, human; settings: comparison of GI50, Table 4
Method: (§6) […]. Cell counts were determined by the Opera software (Perkin Elmer) and data were further processed with SPSS software. GI50 was calculated by estimating the absolute IC50 using dose-response inhibition tool in Prism6 (Graphpad Software Inc.).
(§7) CDK4/6 kinases drive cell cycle progression by phosphorylating the retinoblastoma protein (pRB), thus, releasing its repressive activity on transcription. Accordingly, CDK4/6 specific inhibitors are inefficient in pRB-deficient cells, as cell cycle transcription is induced with independence of CDK4/6 activity. The subject compounds were therefore evaluated to what extent depend on the presence of a functional pRB. Two pairs of human cancer cell lines representing pRB-wild-type and pRB-deficient breast cancer and glioblastoma were tested. […].

[14] = system: phospho RB1 Ser807/811; assay: In vivo target engagement (phospho-RB staining of tissues); set-up: species or system mice; settings: FIG. 7
Description: FIG. 7 depicts the effect of PS004, PS006 and PS009 on the phosphorylation of the retinoblastoma protein in different tissues using antibodies against phospho RB1 Ser807/811. Micrographs are representative from three different mice per treatment.
For histological analysis, mice tissues and human xenografts were fixed in 10%-buffered formalin (Sigma) and embedded in paraffin wax. Sections of 3- or 5-μm thickness were stained with haematoxylin and eosin. Additional immunohistochemical examination was performed using a specific antibody against phospho-Rb (Ser807/811; Cell Signaling) or Ki67 (DAKO).
For in vivo evaluation, the target engagement for the subject compounds in vivo was tested first.

[15] = system: pRB-wild-type and pRB-deficient breast cancer cells (MDA-MB-231, MDA-MB-468); assay: GI50 compared in pRB-wild-type and pRB-deficient cells; assay type: cell-based, human; settings: comparison of GI50, Table 4
Method: as §6, §7

O=c1ccc2cnc(Nc3ccc(N4CCC(CCCO)CC4)cc3)nc2n1C1CC2CCC1C2 (stereo not shown) [PD-0183812, reference compound]
SA-βGAL staining (senescence induction) [1]: induced high levels of SA-βGAL staining | histopathology of the bone marrow [2]: hypoplasia/reactive bone marrow | histopathology of the intestine [2]: aberrant mitotic figures | histopathology of the spleen [2]: active extramedullar hematopoiesis | lung toxicity (hemorrhage in the lungs), mice affected [2]: 6 out of 6 | mouse weight [2]: induced significant weight loss

O=c1ccc2cnc(Nc3ccc(N4CCC(CCCO)CC4)c(F)c3)nc2n1[C@@H]1CC2CCC1C2 (stereo partly drawn) [PS003, 8-((2R)-bicyclo[2.2.1]heptan-2-yl)-2-((3-fluoro-4-(4-(3-hydroxypropyl)piperidin-1-yl)phenyl)amino)pyrido[2,3-d]pyrimidin-7(8H)-one]
SA-βGAL staining (senescence induction) [1]: induced high levels of SA-βGAL staining

CC(O)CCC1CCN(c2ccc(Nc3ncc4ccc(=O)n([C@@H]5CC6CCC5C6)c4n3)cc2)CC1 (stereo partly drawn) [PS004, 8-((2R)-bicyclo[2.2.1]heptan-2-yl)-2-((4-(4-(3-hydroxybutyl)piperidin-1-yl)phenyl)amino)pyrido[2,3-d]pyrimidin-7(8H)-one]
GI50 [3]: 3 µM | GI50 [4]: 11.5 µM | solubility thermodynamic [5]: < 2 µM | solubility kinetic [6]: < 1 µM | microsomal CLint [7]: 40.8 µL/min/mg | half-life [7]: 34 min | hepatocyte CLint [8]: 9.7 µL/min/1e6 cells | half-life [8]: 143 min | Papp [9]: < 0.44 ×10⁻⁶ cm/s | Permeability Caco-2 cells: Permeability, grade in words [10]: (low) | cell proliferation of Cdk2; Cdk4; Cdk6-triple knock out MEFs [11]: efficient in preventing cell proliferation | cell proliferation of Cdk4; Cdk6-double knock out MEFs [12]: efficient in preventing cell proliferation | efficiency in pRB-deficient versus pRB-wild-type glioblastoma cells [13]: more inefficient | phospho-RB staining in bone marrow, intestine and spleen [14]: evident RB target inhibition | histopathology of the bone marrow [2]: hypoplasia/reactive bone marrow | histopathology of the intestine [2]: aberrant mitotic figures | histopathology of the spleen [2]: active extramedullar hematopoiesis | blood counts (white blood cells, lymphocytes) [2]: reduced lymphocyte counts | lung toxicity (hemorrhage in the lungs), mice affected [2]: 4 out of 6

CC(O)COC1CCN(c2ccc(Nc3ncc4ccc(=O)n([C@@H]5CC6CCC5C6)c4n3)cc2)CC1 (stereo partly drawn) [PS006, 8-((2R)-bicyclo[2.2.1]heptan-2-yl)-2-((4-(4-(2-hydroxypropoxy)piperidin-1-yl)phenyl)amino)pyrido[2,3-d]pyrimidin-7(8H)-one]
GI50 [3]: 2.5 µM | GI50 [4]: 2.2 µM | solubility thermodynamic [5]: < 2 µM | solubility kinetic [6]: < 1 µM | microsomal CLint [7]: 119 µL/min/mg | half-life [7]: 11.6 min | hepatocyte CLint [8]: 75.7 µL/min/1e6 cells | half-life [8]: 18.3 min | Papp [9]: 4.62 ×10⁻⁶ cm/s | Permeability Caco-2 cells: Efflux, grade in words [10]: (poor) | Permeability Caco-2 cells: Permeability, grade in words [10]: (high) | SA-βGAL staining (senescence induction) [1]: induced high levels of SA-βGAL staining; also recorded: induced high senescence | cell proliferation of Cdk2; Cdk4; Cdk6-triple knock out MEFs [11]: efficient in preventing cell proliferation | cell proliferation of Cdk4; Cdk6-double knock out MEFs [12]: efficient in preventing cell proliferation | efficiency in pRB-null versus pRB-wild-type breast cancer cells [15]: equally efficient | efficiency in pRB-deficient versus pRB-wild-type glioblastoma cells [13]: equally efficient | histopathology of the spleen [2]: active extramedullar hematopoiesis | lung toxicity (hemorrhage in the lungs), mice affected [2]: 1 out of 6

CC(=O)c1c(C)c2cnc(Nc3ccc(N4CCC(CCCO)CC4)cc3)nc2n([C@@H]2CC3CCC2C3)c1=O (stereo partly drawn) [PS008, 6-acetyl-8-((2R)-bicyclo[2.2.1]heptan-2-yl)-2-((4-(4-(3-hydroxypropyl)piperidin-1-yl)phenyl)amino)-5-methylpyrido[2,3-d]pyrimidin-7(8H)-one]
SA-βGAL staining (senescence induction) [1]: induced high levels of SA-βGAL staining

CC(=O)c1c(C)c2cnc(Nc3ccc(N4CCC(CCCO)CC4)cc3)nc2n(C2CCCC2)c1=O [PS009, 6-acetyl-8-cyclopentyl-2-((4-(4-(3-hydroxypropyl)piperidin-1-yl)phenyl)amino)-5-methylpyrido[2,3-d]pyrimidin-7(8H)-one]
GI50 [3]: 3.9 µM | GI50 [4]: 8 µM | solubility thermodynamic [5]: < 2 µM | solubility kinetic [6]: < 1 µM | microsomal CLint [7]: 33 µL/min/mg | half-life [7]: 42 min | hepatocyte CLint [8]: 67.8 µL/min/1e6 cells | half-life [8]: 20.4 min | Papp [9]: < 0.43 ×10⁻⁶ cm/s | Permeability Caco-2 cells: Permeability, grade in words [10]: (low) | SA-βGAL staining (senescence induction) [1]: induced high levels of SA-βGAL staining; also recorded: very high SA-BGAL activity induction | cell proliferation of Cdk2; Cdk4; Cdk6-triple knock out MEFs [11]: efficient in preventing cell proliferation | cell proliferation of Cdk4; Cdk6-double knock out MEFs [12]: efficient in preventing cell proliferation | efficiency in pRB-null versus pRB-wild-type breast cancer cells [15]: equally efficient | efficiency in pRB-deficient versus pRB-wild-type glioblastoma cells [13]: equally efficient | phospho-RB staining in bone marrow, intestine and spleen [14]: evident RB target inhibition | blood counts (white blood cells, lymphocytes) [2]: no defects in blood counts | lung toxicity (hemorrhage in the lungs), mice affected [2]: 1 out of 6 | mouse weight [2]: induced weight loss
